Source: PubChem BioAssay (NCI)
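Values below derive from 48-hour exposures of cells grown in 96-well plates, with endpoints linearly interpolated between the two concentrations bracketing the appropriate inhibition level. Abbreviation: GI50, concentration required for 50% inhibition of growth. At the TGI there is no net growth.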

Legend:
Assay in all cases: NCI tumour cell line growth inhibition, 48 h
[1] = system: 786-0 renal
[2] = system: A498 renal
[3] = system: A549 NSCLC
[4] = system: ACHN renal
[5] = system: BT-549 breast
[6] = system: CAKI-1 renal
[7] = system: CCRF-CEM leukemia
[8] = system: COLO 205 colon
[9] = system: DU-145 prostate
[10] = system: EKVX NSCLC
[11] = system: HCC-2998 colon
[12] = system: HCT-116 colon
[13] = system: HCT-15 colon
[14] = system: HL-60(TB) leukemia
[15] = system: HOP-62 NSCLC
[16] = system: HOP-92 NSCLC
[17] = system: HS 578T breast
[18] = system: HT29 colon
[19] = system: IGROV1 ovarian
[20] = system: K-562 leukemia
[21] = system: KM12 colon
[22] = system: LOX IMVI melanoma
[23] = system: M14 melanoma
[24] = system: MALME-3M melanoma
[25] = system: MCF7 breast
[26] = system: MDA-MB-231 breast
[27] = system: MDA-MB-435
[28] = system: MOLT-4 leukemia
[29] = system: NCI-H226 lung
[30] = system: NCI-H23 lung
[31] = system: NCI-H460 lung
[32] = system: NCI-H522 lung
[33] = system: NCI/ADR-RES ovarian
[34] = system: OVCAR-4 ovarian
[35] = system: OVCAR-5 ovarian
[36] = system: OVCAR-8 ovarian
[37] = system: PC-3 prostate
[38] = system: RPMI-8226 leukemia
[39] = system: RXF 393 renal
[40] = system: SF-268 CNS
[41] = system: SF-295 CNS
[42] = system: SF-539 CNS
[43] = system: SK-MEL-2 melanoma
[44] = system: SK-MEL-28 melanoma
[45] = system: SK-MEL-5 melanoma
[46] = system: SK-OV-3 ovarian
[47] = system: SN12C renal
[48] = system: SNB-19 CNS
[49] = system: SNB-75 CNS
[50] = system: SR leukemia
[51] = system: SW-620 colon
[52] = system: T-47D breast
[53] = system: TK-10 renal
[54] = system: U251 CNS
[55] = system: UACC-257 melanoma
[56] = system: UACC-62 melanoma
[57] = system: UO-31 renal

COc1ccccc1/C=C/C=N/NC1=NC2C(S1)N(C)C(=O)N2c1ccccc1 (centres undefined)
GI50 [1]: 642 nM | TGI [1]: 13800 nM | GI50 [2]: 251 nM | TGI [2]: 730 nM | GI50 [3]: 485 nM | TGI [3]: > 100000 nM | GI50 [4]: 692 nM | TGI [4]: > 48400 nM | GI50 [5]: 264 nM | TGI [5]: 653 nM | GI50 [6]: 562 nM | TGI [6]: 37800 nM | GI50 [7]: 408 nM | TGI [7]: > 78800 nM | GI50 [8]: 230 nM | TGI [8]: 487 nM | GI50 [9]: 471 nM | TGI [9]: > 100000 nM | GI50 [10]: 729 nM | TGI [10]: > 100000 nM | GI50 [11]: 377 nM | TGI [11]: 11600 nM | GI50 [12]: 353 nM | TGI [12]: 5190 nM | GI50 [13]: 371 nM | TGI [13]: 23100 nM | GI50 [14]: 294 nM | TGI [14]: > 31900 nM | GI50 [15]: 573 nM | TGI [15]: 24700 nM | GI50 [16]: 202 nM | TGI [16]: 1280 nM | GI50 [17]: 356 nM | TGI [17]: 25500 nM | GI50 [18]: 332 nM | TGI [18]: 1490 nM | GI50 [19]: 601 nM | TGI [19]: 26300 nM | GI50 [20]: 383 nM | TGI [20]: > 100000 nM | GI50 [21]: 400 nM | TGI [21]: > 37100 nM | GI50 [22]: 458 nM | TGI [22]: 12500 nM | GI50 [23]: 333 nM | TGI [23]: 2340 nM | GI50 [24]: 2680 nM | TGI [24]: 29000 nM | GI50 [25]: 385 nM | TGI [25]: > 100000 nM | GI50 [26]: 588 nM | TGI [26]: 20900 nM | GI50 [27]: 250 nM | TGI [27]: 636 nM | GI50 [28]: 404 nM | TGI [28]: > 100000 nM | GI50 [29]: 572 nM | TGI [29]: > 47900 nM | GI50 [30]: 474 nM | TGI [30]: > 100000 nM | GI50 [31]: 349 nM | TGI [31]: 11000 nM | GI50 [32]: 210 nM | TGI [32]: 575 nM | GI50 [33]: 359 nM | TGI [33]: > 100000 nM | GI50 [34]: 5230 nM | TGI [34]: > 100000 nM | GI50 [35]: 690 nM | TGI [35]: > 100000 nM | GI50 [36]: 357 nM | TGI [36]: 2230 nM | GI50 [37]: 435 nM | TGI [37]: 19600 nM | GI50 [38]: 396 nM | TGI [38]: 11200 nM | GI50 [39]: 312 nM | TGI [39]: 3360 nM | GI50 [40]: 1690 nM | TGI [40]: 37200 nM | GI50 [41]: 336 nM | TGI [41]: 99200 nM | GI50 [42]: 292 nM | TGI [42]: 867 nM | GI50 [43]: 449 nM | TGI [43]: 15300 nM | GI50 [44]: 11800 nM | TGI [44]: 42200 nM | GI50 [45]: 545 nM | TGI [45]: 5270 nM | GI50 [46]: 510 nM | TGI [46]: > 44800 nM | GI50 [47]: 617 nM | TGI [47]: 29000 nM | GI50 [48]: 455 nM | TGI [48]: > 93400 nM | GI50 [49]: 419 nM | TGI [49]: > 53100 nM | GI50 [50]: 343 nM | TGI [50]: > 46800 nM | GI50 [51]: 403 nM | TGI [51]: 18900 nM | GI50 [52]: 4040 nM | TGI [52]: > 79300 nM | GI50 [53]: 11400 nM | TGI [53]: > 70900 nM | GI50 [54]: 387 nM | TGI [54]: 6280 nM | GI50 [55]: 2180 nM | TGI [55]: 34500 nM | GI50 [56]: 456 nM | TGI [56]: 37000 nM | GI50 [57]: 799 nM | TGI [57]: > 55600 nM
